We go through 2 compounds from PMC3641821 (2011).

SMILES strings stand for the structures.

Test [1] relates to D4, d[5'-A3G5C5T3-3'] (DNA, duplex) AAAGGGGGCCCCCTTT
The test can be described thus: ITC. The note with it: 100 mM KCl; 10 mM sodium cacodylate, 0.5 mM EDTA, pH 6.8, 25 °C.

Test [2] concerns D1, d[5'-G3G5C5C3-3'] (DNA, duplex) GGGGGGGGCCCCCCCC
The test can be described thus: ITC. The note with it: 100 mM KCl; 10 mM sodium cacodylate, 0.5 mM EDTA, pH 6.8, 25 °C.

The test system of test [3] is D5, d[5'-A12-x-T12-3'] (intramolecular duplex) (DNA, hairpin, x = hexaethylene glycol linker between positions 12 and 13) AAAAAAAAAAAATTTTTTTTTTTT
The test can be described thus: ITC. The note with it: 100 mM KCl; 10 mM sodium cacodylate, 0.5 mM EDTA, pH 6.8, 25 °C; site 1 of 2.

The test system of test [4] is D2, d[5'-G2A6T6C2-3'] (DNA, duplex) GGAAAAAATTTTTTCC
The test can be described thus: ITC. The note with it: 100 mM KCl; 10 mM sodium cacodylate, 0.5 mM EDTA, pH 6.8, 25 °C; site 1 of 2.

The test system of test [5] is poly(dA.dT)2 (DNA, polymer) AT. The test can be described thus: UV melting. The note with it: K+ 100 or 150 mM; Na+ 10 mM (cacodylate); rbd 10; per base.
Test [6] has as its system D11, d[5'-(AT)8-3'] (DNA, duplex) ATATATATATATATAT
The test can be described thus: ITC. The note with it: 100 mM KCl; 10 mM sodium cacodylate, 0.5 mM EDTA, pH 6.8, 25 °C.

The test system of test [7] is D9, d[5'-G3(AT)5C3-3'] (DNA, duplex) GGGATATATATATCCC
The test can be described thus: ITC. The note with it: 100 mM KCl; 10 mM sodium cacodylate, 0.5 mM EDTA, pH 6.8, 25 °C.

Test [8] deals with D6, d[5'-A30T30-3'] (DNA, duplex) AAAAAAAAAAAAAAAAAAAAAAAAAAAAAATTTTTTTTTTTTTTTTTTTTTTTTTTTTTT
The test can be described thus: ITC. The note with it: 100 mM KCl; 10 mM sodium cacodylate, 0.5 mM EDTA, pH 6.8, 25 °C; site 1 of 2.

The subject of test [9] is D8, d[5'-A2GAG2AGAGA2GAGAG2AGA2-3'] 22-mer duplex (DNA, duplex) AAGAGGAGAGAAGAGAGGAGAA/TTCTCCTCTCTTCTCTCCTCTT
The test can be described thus: ITC. The note with it: 100 mM KCl; 10 mM sodium cacodylate, 0.5 mM EDTA, pH 6.8, 25 °C; site 1 of 2.

Test [10] deals with D3, d[5'-G3A5T5C3-3'] (DNA, duplex) GGGAAAAATTTTTCCC
The test can be described thus: ITC. The note with it: 100 mM KCl; 10 mM sodium cacodylate, 0.5 mM EDTA, pH 6.8, 25 °C; site 1 of 2.

For the compound `NC[C@@H]1O[C@H](O[C@H]2[C@@H](O)[C@H](O[C@@H]3[C@@H](O)[C@H](N)C[C@H](N)[C@H]3O[C@H]3O[C@H](CN)[C@@H](O)[C@H](O)[C@H]3N)O[C@@H]2CO)[C@H](N)[C@@H](O)[C@@H]1O`, the K1 was 2.02 ± 0.20 × 10^5 M^-1 in test [1] and 3.80 ± 0.18 × 10^5 M^-1 in [2].
On to `NC[C@@H]1O[C@H](O[C@H]2[C@@H](O)[C@H](O[C@@H]3[C@@H](O)[C@H](N)C[C@H](N)[C@H]3O[C@H]3O[C@H](CN)[C@@H](O)[C@H](O)[C@H]3N)O[C@@H]2CSCCNC(=S)NCCOCCOCCNC(=S)NCCSC[C@H]2O[C@@H](O[C@@H]3[C@@H](O)[C@H](N)C[C@H](N)[C@H]3O[C@H]3O[C@H](CN)[C@@H](O)[C@H](O)[C@H]3N)[C@H](O)[C@@H]2O[C@H]2O[C@@H](CN)[C@@H](O)[C@H](O)[C@H]2N)[C@H](N)[C@@H](O)[C@@H]1O`, for which the K1 is reported as 7.75 ± 1.70 × 10^5 M^-1 in [1]; 28.2 ± 12.0 × 10^7 M^-1 in test [3]; 12.9 ± 3.4 × 10^7 M^-1 in [4]; 5.88 ± 2.90 × 10^7 M^-1 in test [6]; 0.54 ± 0.15 × 10^7 M^-1 in [7]; 129.2 ± 54.1 × 10^7 M^-1 in [8]. Moreover, the K1 in test [9] was 1.78 ± 1.00 × 10^7 M^-1; in test [10], 25.3 ± 10.0 × 10^7 M^-1; in [2], 0.27 ± 0.02 × 10^7 M^-1. The ΔTm in [5] is ~ 11 °C.
